Experimental findings from US20110269811A1, “INHIBITORS OF SEMICARBAZIDE-SENSITIVE AMINE OXIDASE (SSAO) AND VAP-1 MEDIATED ADHESION USEFUL FOR TREATMENT AND PREVENTION OF DISEASES” (priority 2006, published 2011) are described below.

One data set has as its target T1, Recombinant human MAO-A (Homo sapiens, UniProt P21397).
T1 construct: purchased BD Biosciences (MA, USA)
T1 sequence (P21397 1-527): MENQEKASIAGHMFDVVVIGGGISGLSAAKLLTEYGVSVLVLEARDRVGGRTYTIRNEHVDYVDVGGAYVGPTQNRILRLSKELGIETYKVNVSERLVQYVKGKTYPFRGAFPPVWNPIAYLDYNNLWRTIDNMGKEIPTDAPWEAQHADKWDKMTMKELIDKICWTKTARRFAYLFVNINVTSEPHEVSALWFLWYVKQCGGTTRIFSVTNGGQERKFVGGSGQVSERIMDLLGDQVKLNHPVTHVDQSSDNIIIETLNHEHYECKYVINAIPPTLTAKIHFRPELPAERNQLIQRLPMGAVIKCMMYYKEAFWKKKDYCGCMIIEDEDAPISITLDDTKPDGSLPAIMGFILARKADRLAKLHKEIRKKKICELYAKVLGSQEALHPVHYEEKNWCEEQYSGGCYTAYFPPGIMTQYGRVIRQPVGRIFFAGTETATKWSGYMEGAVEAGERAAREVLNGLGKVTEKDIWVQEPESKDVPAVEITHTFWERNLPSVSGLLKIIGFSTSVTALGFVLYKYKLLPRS
The data set can be described thus: MAO-A activity, colorimetric method, tyramine substrate. It is filed as biochemical. As to conditions: for Specificity of SSAO on MAO-A: ratio of IC50 for MAO-A to IC50 for SSAO; for IC50: recombinant human MAO-A. On the procedure: The specificities of the different SSAO inhibitors was tested by determining their abilities to inhibit MAO-A and MAO-B activities in vitro. Recombinant human MAO-A and human MAO-B enzymes were obtained from BD Biosciences (MA, USA). MAO activity was measured using the colorimetric method essentially as described (Holt, A. et al. (1997) Anal. Biochem. 244: 384). A pre-determined amount of inhibitor diluted in 0.2M potassium phosphate buffer, pH 7.6, was added to each well, if required. The amount of inhibitor varied in each assay but was generally at a final concentration of between 1 nM and 1 mM. Controls lacked inhibitor. The following agents were then added to a final reaction volume of 200 μL in 0.2M potassium phosphate buffer, pH 7.6: 0.04 mg/ml of MAO-A or 0.07 mg/ml MAO-B enzyme, 15 μL of 10 mM tyramine substrate (for MAO-A), or 15 μL 100 mM benzylamine substrate (for MAO-B), and 50 μL of freshly made chromogenic solution. The chromogenic solution contained 750 μM vanillic acid (Sigma#V-2250), 400 μM 4-aminoantipyrine (Sigma #A-4328) and 12 U/mL horseradish peroxidase (Sigma #P-8250) in order to cause a change of 0.5 OD A490 nm/h. This was within the linear response range for the assay. The plates were incubated for 60 min at 37° C. The increase in absorbance, reflecting MAO activity, was measured at 490 nm using microplate spectrophotometer (Power Wave 40, Bio-Tek Inst.). Inhibition was presented as percent inhibition compared to control after correcting for background absorbance and IC50 values calculated using GraphPad Prism software. Clorgyline and pargyline (inhibitors of MAO-A and -B, respectively) at 1 μM, were added to some wells as positive controls for MAO inhibition. […] The compounds described in the present invention are therefore expected to have therapeutic utility in the treatment of diseases and conditions in which the activity of SSAO/VAP-1 plays a role, that is, in SSAO/VAP-1 mediated diseases and conditions.

The target of the next data set is T2, human MAO-B (Homo sapiens, UniProt P27338).
T2 construct: purchased BD Biosciences (MA, USA)
T2 sequence (P27338 1-520): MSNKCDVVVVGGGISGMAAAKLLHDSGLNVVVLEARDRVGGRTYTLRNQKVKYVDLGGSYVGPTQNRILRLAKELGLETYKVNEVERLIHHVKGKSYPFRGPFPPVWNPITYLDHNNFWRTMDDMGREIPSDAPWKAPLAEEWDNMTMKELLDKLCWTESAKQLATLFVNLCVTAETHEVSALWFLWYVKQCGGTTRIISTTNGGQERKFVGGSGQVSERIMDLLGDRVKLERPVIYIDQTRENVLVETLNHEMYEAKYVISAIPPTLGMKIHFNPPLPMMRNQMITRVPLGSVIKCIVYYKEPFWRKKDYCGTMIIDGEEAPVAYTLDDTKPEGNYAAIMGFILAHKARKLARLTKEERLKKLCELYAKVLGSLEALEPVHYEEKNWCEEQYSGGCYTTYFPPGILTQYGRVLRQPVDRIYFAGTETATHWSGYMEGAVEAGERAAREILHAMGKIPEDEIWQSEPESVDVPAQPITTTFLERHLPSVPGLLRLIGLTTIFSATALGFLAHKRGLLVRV
Kind of data set: MAO-B activity, colorimetric method, benzylamine substrate. Format: biochemical. The note with it: for Specificity of SSAO on MAO-B: ratio of IC50 for MAO-B to IC50 for SSAO; for IC50: recombinant human MAO-B. As for the experimental part:
The specificities of the different SSAO inhibitors was tested by determining their abilities to inhibit MAO-A and MAO-B activities in vitro. Recombinant human MAO-A and human MAO-B enzymes were obtained from BD Biosciences (MA, USA). MAO activity was measured using the colorimetric method essentially as described (Holt, A. et al. (1997) Anal. Biochem. 244: 384). A pre-determined amount of inhibitor diluted in 0.2M potassium phosphate buffer, pH 7.6, was added to each well, if required. […] Controls lacked inhibitor. The following agents were then added to a final reaction volume of 200 μL in 0.2M potassium phosphate buffer, pH 7.6: 0.04 mg/ml of MAO-A or 0.07 mg/ml MAO-B enzyme, 15 μL of 10 mM tyramine substrate (for MAO-A), or 15 μL 100 mM benzylamine substrate (for MAO-B), and 50 μL of freshly made chromogenic solution. The chromogenic solution contained 750 μM vanillic acid (Sigma#V-2250), 400 μM 4-aminoantipyrine (Sigma #A-4328) and 12 U/mL horseradish peroxidase (Sigma #P-8250) in order to cause a change of 0.5 OD A490 nm/h. […] The plates were incubated for 60 min at 37° C. The increase in absorbance, reflecting MAO activity, was measured at 490 nm using microplate spectrophotometer (Power Wave 40, Bio-Tek Inst.). Inhibition was presented as percent inhibition compared to control after correcting for background absorbance and IC50 values calculated using GraphPad Prism software. Clorgyline and pargyline (inhibitors of MAO-A and -B, respectively) at 1 μM, were added to some wells as positive controls for MAO inhibition.

The term melting point denotes the temperature, or range, at which the solid turns liquid. Usually IC50 stands for the midpoint of a concentration-inhibition curve. As for `COc1cccc(C/C=C(/F)CN)c1.Cl` [II-8-E, (E)-2-Fluoro-4-(3-methoxyphenyl)-2-butenylamine hydrochloride], the melting point lay in the range of 175 to 176 °C. In addition, on Recombinant human MAO-A, the “Specificity of SSAO on MAO-A” value is recorded as 50000 and the IC50 came to 1.1 mM. Moreover, at human MAO-B, the “Specificity of SSAO on MAO-B” value is on record as 50000 and the IC50 was 1.1 mM.

As for `Cl.NC/C(F)=C\Cc1ccccc1` [II-9-E, (E)-2-Fluoro-4-phenyl-2-butenylamine hydrochloride], the melting point was in the range of 120 to 121 °C. On Recombinant human MAO-A, the “Specificity of SSAO on MAO-A” value is listed as 12120 and the IC50 worked out at 1.2 mM. In addition, at human MAO-B, the “Specificity of SSAO on MAO-B” value worked out at 12120 and the IC50 worked out at 1.2 mM.

Compound `Cl.NC/C(F)=C\Cc1cccc(OC(F)(F)F)c1` [II-10-E, (E)-2-Fluoro-4-(3-trifluoromethoxyphenyl)-2-butenylamine hydrochloride] registered a melting point of 174 to 175 °C. For the same compound, at Recombinant human MAO-A, the “Specificity of SSAO on MAO-A” value was found to be 48330 and the IC50 amounted to 0.87 mM. In addition, on human MAO-B, the “Specificity of SSAO on MAO-B” value is reported as 53670 and the IC50 is 0.966 mM.

On to `CSc1cccc(C/C=C(/F)CN)c1.Cl` [II-13-E, (E)-2-Fluoro-4-(3-methylthiophenyl)-2-butenylamine hydrochloride], for which the melting point lay within 192 to 193 °C. The “Specificity of SSAO on MAO-A” value on Recombinant human MAO-A is listed as 100000. Besides, the “Specificity of SSAO on MAO-B” value at human MAO-B is 100000.

`CS(=O)(=O)c1cccc(C/C=C(/F)CN)c1.Cl` [II-14-E, (E)-2-Fluoro-4-(3-methanesulfonylphenyl)-2-butenylamine hydrochloride] returned a melting point of 196 to 197 °C. Moreover, the “Specificity of SSAO on MAO-A” value on Recombinant human MAO-A worked out at 14290. Besides, the “Specificity of SSAO on MAO-B” value on human MAO-B came to 14286.

`Cl.NC/C(F)=C\Cc1cccc(SC(F)(F)F)c1` [II-15-E, (E)-2-Fluoro-4-(3-trifluoromethylthiophenyl)-2-butenylamine hydrochloride]: the melting point is 188 to 189 °C. At Recombinant human MAO-A, the “Specificity of SSAO on MAO-A” value is >34780 and the IC50 is > 0.8 mM. In addition, at human MAO-B, the “Specificity of SSAO on MAO-B” value is on record as >34780 and the IC50 was > 0.8 mM.
